From US9726663B2, “Method of identifying or evaluating synergistic combinations of actives and compositions containing the same” (The Procter & Gamble Company, priority 2012, dated 2017)

Assays:
[1] = system: human, dermal fibroblasts (BJ cell line); assay: Extracellular acidification rate (glycolysis) of fibroblasts, XF Extracellular Flux Analyzer; format: cell-based
Description: (§1) With regard to the fibroblasts discussed above in FIGS. 5A, 5B, SC, 5D, 5E, 6, 7A, 7B, 7C, 7D, 7E and 8 frozen, human dermal fibroblasts were obtained from the BJ cell line commercially available from ATCC, Bethesda, Md. The fibroblasts were grown to 70-80% confluence in a fibroblast culture medium of Eagle's Minimum Essential Medium (“EMEM”) supplemented with 10% fetal bovine serum (“FBS”) and gentamicin/amphotericin B ×500 solution (EMEM and FBS are available from ATCC and gentamicin/amphotericin B ×500 solution is available from Invitrogen). […] Each well included 100 μL of the fibroblast medium described above. A test medium was made from Dulbecco's Modified Eagle Medium (available from Seahorse Bioscience), 25 mM Glucose and 1 mM pyruvate. The test medium was warmed to 37° C. and the pH adjusted to 7.4. The cells were grown and plated at 37° C. and 5% CO2 air. The fibroblast medium in the wells was replaced by the test medium 1 hour prior to taking measurements. Oxygen consumption rate and extracellular acidification rate may be detected using an XF Extracellular Flux Analyzer or equivalent. The device should be capable of non-lethally and simultaneously detecting metabolic indicators of the oxphos and glycolysis pathways in a controlled environment, as well as providing […]. The cells may be provided in a multi-well plate suitable for use with the instrument (e.g., 24-well or 96 well plate) and washed prior to testing. The cells may be washed by any suitable means known in the art (e.g., using a Seahorse Biosciences XF prep station). It may be desirable to use a suitable prep station such as an XF prep station available from Seahorse Biosciences). When washing the cells, it may be desirable to remove the medium from the wells and wash the cells three times with a suitable amount of test medium (e.g., 180 μL in a 96-well plate or 600 μL in a 24-well plate). After washing the cells, a suitable amount (e.g., 180 μL) of an appropriate test medium is placed in each well, and the cells are equilibrated at 37° C. in a CO2-free incubator for 1-1.5 hours prior to taking placing the plate in the instrument for testing. Following the equilibration period, load the plate containing the cells into the instrument and equilibrate according to manufacturer's instructions. The entire test is conducted at 37° C. In some embodiments, the instrument may be to provide a three minute mix cycle, a two minute wait cycle, and a 3 minute measurement cycle for keratinocytes and a two minute mix cycle, two minute wait cycle, and 3 minute measurement cycle for fibroblasts. The cycles should be repeated for at least 88 minutes. It is to be appreciated that the cycles and times may be modified according to cell type and experiment design, as desired. The following example illustrates how the method herein can be used to identify synergistic combinations of skin care actives. Hydrogen peroxide is a well known ROS, and is used in this example to illustrate the undesirable metabolic effects associated with exposure of a cell to an oxidative stressor. The hydrogen peroxide was prepared at 10X working concentration in the fibroblast test medium described above. The test agents are niacinamide (also known as vitamin B3) and tocoquinone both commercially available from Sigma. The test agents were each prepared at 10× the final working concentration in the fibroblast test medium described above to provide a test agent solution. The stressor solution and the test agent solutions were both warmed to 37° C. and pH adjusted to 7.4. The cells are frozen, human, dermal fibroblasts obtained from ATCC (BJ cell line). The cells were cultured and prepared according to the test method described above. The fibroblasts were plated in Gelatin-coated, 96-well plate. Each well contained approximately 4×10^4 cells and 180 μL of fibroblast test medium (i.e., Seahorse Biosciences DMEM, 25 mM glucose and 1 mM pyruvate) at 37° C. and pH 7.4. […]

[2] = system: human, dermal fibroblasts (BJ cell line); assay: Oxygen consumption rate (oxidative phosphorylation) of fibroblasts, XF Extracellular Flux Analyzer; format: cell-based; parameters: Average OCR value per treatment group: unit not given here
Description: as §1

[3] = rate number 1, before addition of stressor/test agents (basal)
[4] = rate number 2, before addition of stressor/test agents (basal)
[5] = rate number 3, before addition of stressor/test agents (basal, reference)
[6] = rate number 4, 1.5 mM hydrogen peroxide, 0.25 mM niacinamide, 0.025 mM tocoquinone
[7] = rate number 5, 1.5 mM hydrogen peroxide, 0.25 mM niacinamide, 0.025 mM tocoquinone
[8] = rate number 6, 1.5 mM hydrogen peroxide, 0.25 mM niacinamide, 0.025 mM tocoquinone
[9] = rate number 7, 1.5 mM hydrogen peroxide, 0.25 mM niacinamide, 0.025 mM tocoquinone
[10] = rate number 8, 1.5 mM hydrogen peroxide, 0.25 mM niacinamide, 0.025 mM tocoquinone
[11] = rate number 9, 1.5 mM hydrogen peroxide, 0.25 mM niacinamide, 0.025 mM tocoquinone
[12] = rate number 10, 1.5 mM hydrogen peroxide, 0.25 mM niacinamide, 0.025 mM tocoquinone
[13] = rate number 11, 1.5 mM hydrogen peroxide, 0.25 mM niacinamide, 0.025 mM tocoquinone
[14] = rate number 12, 1.5 mM hydrogen peroxide, 0.25 mM niacinamide, 0.025 mM tocoquinone
[15] = rate number 13, 1.5 mM hydrogen peroxide, 0.25 mM niacinamide, 0.025 mM tocoquinone
[16] = rate number 14, 1.5 mM hydrogen peroxide, 0.25 mM niacinamide, 0.025 mM tocoquinone
[17] = rate number 15, 1.5 mM hydrogen peroxide, 0.25 mM niacinamide, 0.025 mM tocoquinone
[18] = rate number 16, 1.5 mM hydrogen peroxide, 0.25 mM niacinamide, 0.025 mM tocoquinone
[19] = rate number 17, 1.5 mM hydrogen peroxide, 0.25 mM niacinamide, 0.025 mM tocoquinone
[20] = rate number 18, 1.5 mM hydrogen peroxide, 0.25 mM niacinamide, 0.025 mM tocoquinone

## NC(=O)c1cccnc1 [niacinamide]
[1]; 0.25 mM niacinamide added by itself, no hydrogen peroxide
  effect on acidification rate (glycolysis metabolism): does not significantly affect glycolysis metabolism
[1]; added in combination with 1.5 mM hydrogen peroxide
  effect on glycolysis metabolism in combination with hydrogen peroxide: appears to lessen the detrimental effect of the hydrogen peroxide on glycolysis metabolism
[1]; [3]
  Average ECAR value per treatment group: 107.35 percentage of rate 3
[1]; [4]
  Average ECAR value per treatment group: 99.41 percentage of rate 3
[1]; [5]
  Average ECAR value per treatment group: 100 percentage of rate 3
[1]; [6]
  Average ECAR value per treatment group: 64.35 percentage of rate 3
[1]; [7]
  Average ECAR value per treatment group: 33.18 percentage of rate 3
[1]; [8]
  Average ECAR value per treatment group: 34.48 percentage of rate 3
[1]; [9]
  Average ECAR value per treatment group: 42.19 percentage of rate 3
[1]; [10]
  Average ECAR value per treatment group: 49.60 percentage of rate 3
[1]; [11]
  Average ECAR value per treatment group: 55.87 percentage of rate 3
[1]; [12]
  Average ECAR value per treatment group: 60.52 percentage of rate 3
[1]; [13]
  Average ECAR value per treatment group: 62.89 percentage of rate 3
[1]; [14]
  Average ECAR value per treatment group: 60.57 percentage of rate 3
[1]; [15]
  Average ECAR value per treatment group: 57.46 percentage of rate 3
[1]; [16]
  Average ECAR value per treatment group: 55.04 percentage of rate 3
[1]; [17]
  Average ECAR value per treatment group: 52.85 percentage of rate 3
[1]; [18]
  Average ECAR value per treatment group: 51.52 percentage of rate 3
[1]; [19]
  Average ECAR value per treatment group: 49.85 percentage of rate 3
[1]; [20]
  Average ECAR value per treatment group: 47.58 percentage of rate 3
[2]; in combination with 1.5 mM H2O2, 0.25 mM niacinamide, 0.025 mM tocoquinone
  effect on reduction in OCR caused by hydrogen peroxide: appears to lessen the reduction in OCR caused by the hydrogen peroxide
[2]; [3]
  Average OCR value per treatment group: 99.16
[2]; [4]
  Average OCR value per treatment group: 101.76
[2]; [5]
  Average OCR value per treatment group: 100
[2]; [6]
  Average OCR value per treatment group: −21.15
[2]; [7]
  Average OCR value per treatment group: 63.31
[2]; [8]
  Average OCR value per treatment group: 60.15
[2]; [9]
  Average OCR value per treatment group: 47.41
[2]; [10]
  Average OCR value per treatment group: 38.52
[2]; [11]
  Average OCR value per treatment group: 34.85
[2]; [12]
  Average OCR value per treatment group: 32.39
[2]; [13]
  Average OCR value per treatment group: 31.10
[2]; [14]
  Average OCR value per treatment group: 32.43
[2]; [15]
  Average OCR value per treatment group: 30.49
[2]; [16]
  Average OCR value per treatment group: 29.48
[2]; [17]
  Average OCR value per treatment group: 28.18
[2]; [18]
  Average OCR value per treatment group: 26.95
[2]; [19]
  Average OCR value per treatment group: 25.83
[2]; [20]
  Average OCR value per treatment group: 23.41
